This is an account of results in paper PMC3420011, “Small-Molecule Inhibition of BRDT for Male Contraception” (Cell, 2012).

SMILES strings stand for the structures. pIC50: −log10 of the molar value.

The assay concerns the target T1, BRDT (Mus musculus, UniProt Q91Y44).
T1 construct: mBRDT(1) 23–133, first (N-terminal) bromodomain
Put plainly: AlphaScreen competition with H4Kac4 peptide (IC50); ITC. The assay is classed as binding. On the technique in general: Alpha assays give light when donor and acceptor beads are brought close together.

As for `Cc1sc2c(c1C)C(c1ccc(Cl)cc1)=N[C@@H](CC(=O)OC(C)(C)C)c1nnc(C)n1-2` [(+)-JQ1], the negative-log IC50 (pIC50) (usually the IC50 on a negative log10 scale, so that one unit is a factor of ten) is 8.00.
